According to the NIST ThermoML archive (doi:10.1021/je7004006):

Assay: molar heat capacity at constant pressure
Settings: 101.33 kPa, Crystal, Small (less than 1 g) adiabatic calorimetry

O=C([O-])c1cccnc1.O=C([O-])c1cccnc1.O=C([O-])c1cccnc1.[Cr+3] [chromium nicotinate]
Settings	molar heat capacity at constant pressure [J/K/mol]
78.3 K	123.81
79.58 K	125.36
80.78 K	127.92
83.27 K	130.33
85.75 K	132.64
87.67 K	134.61
88.87 K	136.08
90.15 K	137.63
92 K	139.67
93.27 K	141.41
94.62 K	142.98
95.9 K	144.85
97.32 K	146.89
98.81 K	148.83
100.39 K	151.39
102.33 K	154.15
104.42 K	157.04
106.52 K	159.91
108.56 K	162.72
110.57 K	165.32
112.55 K	168.16
114.51 K	171.37
116.44 K	174.23
118.51 K	177.09
120.7 K	180.42
122.86 K	183.21
125 K	186.13
127.12 K	189.86
129.2 K	192.42
131.27 K	194.83
133.29 K	197.19
135.34 K	199.39
137.35 K	202.21
139.34 K	205.13
141.27 K	208.55
143.29 K	211.67
145.18 K	214.31
147.24 K	217.25
149.26 K	220.52
151.28 K	222.96
153.41 K	226.31
155.54 K	229.13
157.62 K	231.64
159.7 K	235.03
161.75 K	238.11
163.85 K	240.81
165.85 K	243.11
167.87 K	246.05
169.89 K	248.77
171.91 K	251.87
173.84 K	254.46
175.86 K	257.44
177.79 K	260.13
179.73 K	262.72
181.66 K	265.17
183.6 K	268.44
185.62 K	271.07
187.71 K	274.19
189.73 K	277.14
191.82 K	280.35
193.92 K	283.85
196.02 K	286.68
198.11 K	289.66
200.29 K	293.01
202.31 K	295.75
204.32 K	298.67
206.42 K	301.71
208.43 K	304.98
210.45 K	308.04
212.47 K	310.72
214.4 K	313.38
216.42 K	316.97
218.35 K	320.03
220.29 K	324.12
222.3 K	325.43
224.24 K	328.85
226.09 K	332.72
228.83 K	337.34
231.74 K	341.35
234.72 K	345.07
237.78 K	349.99
241.01 K	354.61
244.07 K	360.78
247.13 K	364.57
250.28 K	369.63
253.26 K	373.95
256.33 K	378.71
259.39 K	383.32
262.45 K	388.08
265.52 K	392.41
268.5 K	397.46
271.49 K	402.07
274.55 K	406.39
277.77 K	410.55
280.84 K	415.32
283.98 K	420.08
287.05 K	425.14
290.11 K	429.31
293.25 K	432.73
296.24 K	436.89
299.14 K	441.06
302.2 K	445.38
305.27 K	449.99
308.25 K	453.86
311.39 K	458.92
314.62 K	464.13
317.68 K	468.44
320.91 K	472.31
324.13 K	476.78
327.12 K	480.35
329.78 K	484.81
332.44 K	488.54
335.1 K	492.26
337.84 K	495.98
340.5 K	499.71
343.24 K	503.86
346.06 K	507.44
348.97 K	511.45
351.79 K	514.88
354.53 K	518.75
357.43 K	523.81
360.34 K	528.42
363 K	532.73
365.9 K	536.45
368.64 K	539.88
371.37 K	543.64
374.08 K	547.89
376.98 K	552.51
379.69 K	556.21
382.38 K	559.42
385.12 K	562.83
387.85 K	566.51
390.52 K	569.91
